In patent US20140275078A1, “COMPOSITIONS AND METHODS FOR TREATING CANCER USING PI3KB INHIBITOR AND MAPK PATHWAY INHIBITOR, INCLUDING MEK AND RAF INHIBITORS” (SANOFI, priority 2011, published 2014):
Where two headings read alike, the source gives them in different places.

What was measured:
[1] = tested on: human melanoma cell line WM-266-4; assay: Cell proliferation (CelltiterGlo, ray design) in WM-266-4; assay type: cell-based; conditions: example 3; single agent; 96 hours; 4-parameter logistic model
Description: UACC-62 cells were plated at 2500 cells/well in 96-well plates in appropriate culture medium and incubated 6 hours at 37° C., 5% CO2. […] Cell growth was evaluated by measuring intracellular ATP using CelltiterGlo® reagent (Promega) according to the manufacturer's protocol. Briefly, Cell Titer Glo was added to each plate, incubated for 1 hour then luminescent signal was read on the MicroBeta Luminescent plate reader. All plates were run in duplicate. All assays were run at least in duplicate.
Inhibition of cell growth was estimated after treatment with compound or combination of compounds for four days and comparing the signal to cells treated with vehicle (DMSO).
Growth inhibition percentage (GI %) was calculated according to the following equation: GI %=100*(1−((X−BG)/(TC−BG))
A global non linear mixed model using NLMIXED procedure of SAS V9.2 was applied to fit simultaneously the concentration-responses curves for each ray. The combination index
of each ray i and its 95% confidence interval was then estimated using the following equation: […]
where IC40A and IC40B are the concentrations of compound A and compound B necessary to obtain 40% of inhibition for each compound alone and CA and CB are the concentrations of compound A and compound B in the mixture necessary to obtain 40% of inhibition.
The human melanoma WM-266-4 cell line was purchased at ATCC (Ref number CRL-1676 Batch 3272826). The WM-266-4 cells were cultured in RPMI1640 medium supplemented with 10% FBS and 2 mM L-Glutamine.
Materials and Methods are the same described in example 1.
The human melanoma WM-266-4 cell line was purchased at ATCC (Ref number CRL-1676 Batch 3272826). The WM-266.4 cells were cultured in RPMI1640 medium supplemented with 10% FBS and 2 mM L-Glutamine.

[2] = tested on: human melanoma tumors WM-266.4; conditions: Ex. 7, Cpd (I) 150 mg/kg bid, alone or combined
[3] = target: PI3K gamma (Homo sapiens, UniProt P48736); conditions: cited from earlier work
[4] = Chemical stability of dosing stock solution; conditions: oral dosing formulation of each compound; in the dark at RT
[5] = tested on: human melanoma tumors UACC-62; assay: Antitumor activity against subcutaneous UACC-62 tumors in SCID female mice; conditions: Ex. 6, Cpd (I) 151.5 mg/kg bid, alone or combined
[6] = PO d8-15, Cpd (2b) 100 mg/kg qd

Sequence of PI3K gamma (P48736 whole entry): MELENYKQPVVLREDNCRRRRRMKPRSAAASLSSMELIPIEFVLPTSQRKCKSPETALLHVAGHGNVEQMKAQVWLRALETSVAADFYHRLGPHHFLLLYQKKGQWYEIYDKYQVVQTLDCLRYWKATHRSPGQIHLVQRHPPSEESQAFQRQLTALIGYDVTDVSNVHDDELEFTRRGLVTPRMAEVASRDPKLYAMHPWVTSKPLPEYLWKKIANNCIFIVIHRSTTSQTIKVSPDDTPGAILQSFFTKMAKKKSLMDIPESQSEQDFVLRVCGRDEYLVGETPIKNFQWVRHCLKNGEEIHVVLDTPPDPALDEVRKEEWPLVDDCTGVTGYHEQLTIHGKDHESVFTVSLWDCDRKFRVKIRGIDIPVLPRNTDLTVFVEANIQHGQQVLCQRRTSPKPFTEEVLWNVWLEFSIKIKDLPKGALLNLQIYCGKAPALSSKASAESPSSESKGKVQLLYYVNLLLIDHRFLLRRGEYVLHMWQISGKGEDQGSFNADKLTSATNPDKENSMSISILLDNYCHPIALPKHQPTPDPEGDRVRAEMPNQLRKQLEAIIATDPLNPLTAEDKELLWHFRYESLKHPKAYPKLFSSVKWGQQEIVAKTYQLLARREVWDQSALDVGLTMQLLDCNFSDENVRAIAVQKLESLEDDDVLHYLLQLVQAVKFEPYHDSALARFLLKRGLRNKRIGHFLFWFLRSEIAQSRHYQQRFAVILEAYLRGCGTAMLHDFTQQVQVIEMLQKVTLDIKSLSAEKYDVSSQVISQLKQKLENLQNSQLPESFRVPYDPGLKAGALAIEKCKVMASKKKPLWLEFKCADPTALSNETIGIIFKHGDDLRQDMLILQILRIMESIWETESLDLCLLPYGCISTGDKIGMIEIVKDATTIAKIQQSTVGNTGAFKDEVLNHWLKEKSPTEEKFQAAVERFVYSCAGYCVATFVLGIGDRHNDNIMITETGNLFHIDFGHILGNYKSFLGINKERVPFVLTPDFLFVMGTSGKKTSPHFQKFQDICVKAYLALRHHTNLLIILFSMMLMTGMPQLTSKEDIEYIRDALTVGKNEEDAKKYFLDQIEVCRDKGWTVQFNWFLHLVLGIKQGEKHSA

C[C@H]1Cc2ccccc2N1C(=O)Cc1nc(N2CCOCC2)cc(=O)[nH]1 [Compound (I), 2-{2-[(2S)-2-methyl-2,3-dihydro-1H-indol-1-yl]-2-oxoethyl}-6-(morpholin-4-yl)pyrimidin-4(3H)-one]
Absolute IC40 [1]: 0.834 µM
Tumor volume changes from baseline: Median (nMad) ([2]; Cpd (2b) 50 mg/kg qd, Day 24): 54 (53.4)
Tumor volume changes from baseline: Median (nMad) ([2]; Cpd (2b) 50 mg/kg qd, Day 27): 132 (62.3)
Tumor volume changes from baseline: Median (nMad) ([2]; Cpd (2b) 50 mg/kg qd, Day 29): 162 (47.4)
Tumor volume changes from baseline: Median (nMad) ([2]; Cpd (2b) 50 mg/kg qd, Day 31): 272 (20.8)
Tumor volume changes from baseline: Median (nMad) ([2]; Cpd (2b) 50 mg/kg qd, Global): 138 (100.8)
Tumor volume changes from baseline: Median (nMad) ([2]; Cpd (2b) 100 mg/kg qd, Day 24): 54 (53.4)
Tumor volume changes from baseline: Median (nMad) ([2]; Cpd (2b) 100 mg/kg qd, Day 27): 132 (62.3)
Tumor volume changes from baseline: Median (nMad) ([2]; Cpd (2b) 100 mg/kg qd, Day 29): 162 (47.4)
Tumor volume changes from baseline: Median (nMad) ([2]; Cpd (2b) 100 mg/kg qd, Day 31): 272 (20.8)
Tumor volume changes from baseline: Median (nMad) ([2]; Cpd (2b) 100 mg/kg qd, Global): 138 (100.8)
IC50 [3]: > 10 µM
stock solution chemically stable [4]: 7 days
Tumor volume changes from baseline: Median (nMad) ([5]; Cpd (2b) 50 mg/kg qd, Day 11): 54 (62.3)
Tumor volume changes from baseline: Median (nMad) ([5]; Cpd (2b) 50 mg/kg qd, Day 13): 145 (71.2)
Tumor volume changes from baseline: Median (nMad) ([5]; Cpd (2b) 50 mg/kg qd, Day 15): 303 (63.8)
Tumor volume changes from baseline: Median (nMad) ([5]; Cpd (2b) 50 mg/kg qd, Global): 145 (89)
Tumor volume changes from baseline: Median (nMad) ([5]; Cpd (2b) 100 mg/kg qd, Day 11): 54 (62.3)
Tumor volume changes from baseline: Median (nMad) ([5]; Cpd (2b) 100 mg/kg qd, Day 13): 145 (71.2)
Tumor volume changes from baseline: Median (nMad) ([5]; Cpd (2b) 100 mg/kg qd, Day 15): 303 (63.8)
Tumor volume changes from baseline: Median (nMad) ([5]; Cpd (2b) 100 mg/kg qd, Global): 145 (89)
Average body weight change in % per mouse at nadir [5, 6]: −2.9%
Drug death (Day of death) [5, 6]: 0/7
day of nadir [5, 6]: 15 days
ΔT/ΔC % (day 15) [5, 6]: 39%
